Data set [1] in a line: pKa determination (Sirius GLpKa). Type of data set: physicochemical. On the procedure: The Sirius GLpKa instrument is used to determine the pKa and Log P. A blank standardization has to be completed first and passed in order to conduct the compound experiments. The solutions used by the instrument for the blank titration include water, a pH solution, and a surfactant (TRITON X-100). The TRITON X-100 was purchased commercially from Sirus. The 0.5% solution of TRITON X-100 was used in the experiment. In a 1 L volumetric flask 5 mls of TRITON X-100 is added and MILLI Q water to volume. The vessels used by the instrument were filled to ⅓ of their volume with each solution. Therefore the assay tray contains one vessel for water, pH solution, and surfactant for the blank run. The temperature of the water bath for the instrument is 25° C. The blank is calculated as an average of three “good” experiments. The “good” was denoted by a green check mark next to the assay number in the computer software. Once the blank was run successfully the instrument was ready to conduct the experiments.
The pKa has to be determined first in order to calculate the Log P. The API is used to determine the pKa needed for the Log P experiment followed by the conjugates. The base compound was first weighed into a vessel. The amount weighed for each sample was 10% of the molecular weight of the compound. The same procedure was followed for each conjugate. The vessels were placed in the assay tray of the instrument. A method had to be set up for the pKa run. The experimental parameters are entered into the computer software. These included sample weight, molecular weight, assay type (aqueous pKa), number of assays (three), and titration range (generally 3.5-12). The run was started. There are three measurements for each run that are averaged to obtain the final results from the data points collected in the calculation software. All runs were denoted as “good” by the green check mark next to the assay number.

Data set [2] in a line: Log P determination (Sirius GLpKa). Type of data set: physicochemical. On the procedure: The Sirius GLpKa instrument is used to determine the pKa and Log P. A blank standardization has to be completed first and passed in order to conduct the compound experiments. The solutions used by the instrument for the blank titration include water, a pH solution, and a surfactant (TRITON X-100). The TRITON X-100 was purchased commercially from Sirus. The 0.5% solution of TRITON X-100 was used in the experiment. In a 1 L volumetric flask 5 mls of TRITON X-100 is added and MILLI Q water to volume. The vessels used by the instrument were filled to ⅓ of their volume with each solution. Therefore the assay tray contains one vessel for water, pH solution, and surfactant for the blank run. The temperature of the water bath for the instrument is 25° C. The blank is calculated as an average of three “good” experiments. The “good” was denoted by a green check mark next to the assay number in the computer software. Once the blank was run successfully the instrument was ready to conduct the experiments. An additional method has to be set up for the Log P determinations for each compound. The conjugates are weighed into vessels in the same manner as for the previous experiment, i.e., 10% of the molecular weight. The vessels are placed in the assay tray of the instrument. The experimental parameters are entered into the computer. These included sample weight, molecular weight, assay type (Partition Log P), number of assays (three), and pKa value of the parent drug from the previous experiment. The run was started. There are three measurements for each run that are averaged to obtain the final results from the data points collected in the calculation software. All runs were denoted as “good” by the green check mark next to the assay number.

A short description of data set [3]: Toxicity XTT in CEM-SS cells (cytoprotection assay). The data set is classed as cell-based. To be noted: human, CEM-SS TC50. As to the method: (§1) Cell Preparation—CEM-SS cells were passaged in T-75 flasks prior to use in the antiviral assay. On the day preceding the assay, the cells were split 1:2 to assure they were in an exponential growth phase at the time of infection. Total cell and viability quantification was performed using a hemocytometer and Trypan Blue dye exclusion. Cell viability was greater than 95% for the cells to be utilized in the assay. The cells were resuspended at 5×10^4 cells per ml in tissue culture medium and added to the drug containing microtiter plates in a volume of 50 μL.
(§2) Plate Format—Each plate contains cell control wells (cells only), virus control wells (cells plus virus), drug toxicity wells (cells plus drug only), drug colorimetric control wells (drug only) as well as experimental wells (drug plus cells plus virus). Samples were tested in triplicate with eleven half-log dilutions per compound.
(§3) Efficacy and Toxicity XTT—Following incubation at 37° C. in a 5% CO2 incubator, the test plates were stained with the tetrazolium dye XTT (2,3-bis(2-methoxy-4-nitro-5-sulfophenyl)-5-[(phenylamino)carbonyl]-2H-tetrazolium hydroxide). XTT-tetrazolium is metabolized by the mitochondrial enzymes of metabolically active cells to a soluble formazan product, allowing rapid quantitative analysis of the inhibition of HIV induced cell killing by anti-HIV test substances. XTT solution was prepared daily as a stock of 1 mg/mL in RPMI1640. Phenazine methosulfate (PMS) solution was prepared at 0.15 mg/mL in PBS and stored in the dark at −20° C. XTT/PMS stock was prepared immediately before use by adding 40 μL of PMS per ml of XTT solution. Fifty microliters of XTT/PMS was added to each well of the plate and the plate was re-incubated for 4 hours at 37° C. Plates were sealed with adhesive plate sealers and shaken gently or inverted several times to mix the soluble fosmazan product and the plate was read spectrophotometrically at 450/650 nm with a Molecular Devices Vmax plate reader.
(§4) Data Analysis—Raw data was collected from the Softmax Pro 4.6 software and imported into a Excel XLFit4 spreadsheet for analysis by four parameter curve fit calculations. Both antiviral activity and toxicity are calculated.

Another data set deals with CEM-SS cells. The description is as above. Type of data set: cell-based. Conditions: human. As to the method:
as §1, §2, §3, §4

Another data set in a line: in vitro. Type of data set: in vitro ADME. Conditions: human. On the procedure: (§5) Each determination was performed in duplicate.
(§6) Vr is the volume of the receiver compartment in cm^3.
(§7) Vd is the volume of the donor compartment in cm^3.
(§8) A is the area of the cell monolayer (1.13 cm^2 for 12-well Transwell®).
(§9) CN is the nominal dosing concentration of the dosing solution in μM.
(§10) CA is the average of the nominal dosing concentration and the measured 120 minute donor concentration in μM.
(§11) Cr^final is the receiver concentration in μM at the end of the incubation period.
(§12) Cd^final is the concentration of the donor in μM at the end of the incubation period.

The subject of another data set is Caco-2 monolayers. Nature of the data set: in vitro. Type of data set: in vitro ADME. Conditions: human, Caco-2, 2 h, 10 μM, pH 7.4. As to the method: as §5, §6, §7, §8, §9, §10, §11, §12

As usually defined, the logP is a log measure of how a compound divides between an organic and an aqueous phase. Low readings indicate a more hydrophilic compound, high ones a more lipophilic compound. For orientation: CC50 means the concentration at which the toxic effect on the cells reaches its halfway point. As a reminder, the Papp A→B is how fast a substance crosses the layer from the apical side. A higher Papp A→B goes with ready permeation. What is called Papp B→A is how fast a substance crosses the layer from the basolateral side.

Molecules are shown by their SMILES. Counter-ions that a name gives are not always drawn.

In data set [1], `CC(C)Nc1cccnc1N1CCN(C(=O)c2cc3cc(NS(C)(=O)=O)ccc3[nH]2)CC1` [Delavirdine Mesylate, reference compound] gave a pKa1 of 4.323 and a pKa2 of 9.272. Besides, in data set [2], the logP is 3.5. In data set [3], this compound registered a half-maximal cytotoxic concentration (CC50) of 27.2 µM. In the data set on CEM-SS cells, this compound returned a CC50 of 52.4 µM. The compound further came in with an apical-to-basolateral permeability (Papp A→B) at 2 hours, 10 μM in the data set “in vitro” (Caco-2, pH 7.4, Average Papp, A→B) of 9.87 ×10⁻⁶ cm/s. Also, the Papp B→A at 2 hours, 10 μM in “in vitro” (Caco-2, pH 7.4, Average Papp, B→A) was 67.9 ×10⁻⁶ cm/s. In “in vitro” (Caco-2, pH 7.4, Recovery (%) A→B), the recovery at 2 h, 10 μM worked out at 65%. In the data set with Caco-2 monolayers, the “Recovery (%) A→B” value was 82% and the “Recovery (%) B→A” value stood at 86%.

Values taken from US9421204B2, “Oligomer modified diaromatic substituted compounds” (priority 2010, dated 2016).
